The text below walks through data of US5411965A, “Use of delta opioid receptor antagonists to treat cocaine abuse” (Arizona Board of Regents, priority 1993, dated 1995).

Each structure is given as a SMILES string. “Also recorded” adds a separate entry of the source.

For experiment [1] the following is noted: cited from earlier work.
Another experiment addresses kappa opioid receptor. The note with it: agonist ethylketazocine in GPI; antagonist 100 or 200 nM, 15 min; read-out: Ke, EK; cited from earlier work.
A further experiment concerns the target mu opioid receptor. The note with it: agonist morphine in GPI; antagonist 100 or 200 nM, 15 min; read-out: Ke; cited from earlier work.
The format of experiment [2] is in vivo, rats. From the text:
When rats are fixed with chronically indwelling bipolar electrodes for electrical stimulation of the medial forebrain bundle, they will press levers for brief durations of stimulation. The higher the intensity of stimulation, the greater the pressing. […] These relationships plus extant theory provide the rationale for using pressing for brain stimulation as a means of assessing the reinforcing effects of drugs and assessing which drugs might affect another drug's reinforcing effects.
The particulars of the procedures used herein are briefly summarized. Further information is in Reid (cited above) and Reid et al. (Life Sciences, 52, PL67-71 (1993)). Rats were fixed with chronically indwelling bipolar electrodes. Using standard stereotaxic methods, which includes full anesthesia, the tips of the electrode were aimed to stimulate the medial forebrain bundle as it traverses the lateral hypothalamus. With the skull held in a stereotaxic instrument so that a plane between bregma and lamba was perpendicular to the shaft of the electrode, the following stereotaxic coordinates were used: 3.5 mm posterior to brema, 1.6 mm lateral to the midline, and 8.6 mm below the surface of the skull.
The apparatus of these tests was a Skinner box (24×30 ×38 cm) equipped with a lever (2.5×2 cm). Each box was fixed with electrical leads and a slip-ring apparatus that allowed the rat to be connected to the electrical stimulator for intracranial stimulation, but allowed the rat to move freely in the box.
Upon full recovery from surgery, rats were trained to press a lever in the Skinner box for electrial stimulation of the brain. The electrical stimulation was 60 Hz sine waves of 0.3 sec. The maximum intensity used was of 50 microAmps. Each lever press delivered one 0.3-sec of brain stimulation.
Just after rats learned to press the lever, the intensity of the brain stimulation was varied. Three intensities were chosen. The lowest intensity was one that was barely sufficient to sustain lever pressing. The highest intensity sustained high rates of pressing, but not the highest rates that a rat can achieve. The medium intensity was about midway between the lowest and the highest. Once a set of intensities were established for each rat, those intensities remained fixed throughout the balance of testing. […] Each rat was under a daily regimen. They were allowed to press for each of three intensities of brain stimulation for 10 minutes. […] They were allowed to press the lever under this daily regimen under level-pressing rates became stable. Then, drugs (or placebos) were administered.
The methods of Example 5 were nearly the same as those of Example 4. Rats were fixed, using standard procedures, with chronically indwelling electrodes for stimulation of the medial forebrain bundle. Subsequent to recovery from surgery, they were trained to press for brain stimulation. After each learned to press, they were put on a daily regimen. That daily regimen involved pressing for 5 min at a high intensity of brain stimulation, followed by 5-minute sessions with medium, low, low, medium and then high intensity. Intensities were set for each rat so that pressing rate for the low intensity was rather slow (the low intensity being near lower threshold for maintaining pressing), pressing for the high intensity was at a high rate, and pressing for the medium intensity was between the rate for low and high intensity. Pressing at each intensity was averaged for an index of rat's responsiveness at that intensity.

With `O=C1CC[C@@]2(O)[C@H]3Cc4ccc(O)c5c4[C@@]2(CCN3CC2CC2)[C@H]1O5` [naltrexone], the conditioned place aversion entry in experiment [1] (given alone, literature) is “condition place aversions”. In experiment [1] (rat, in vivo), the “effect on MDMA's conditioned place preference” value is on record as “attenuated but not blocked” and the “effect on cocaine's conditioned place preference” value is “attenuate cocaine's reinforcing properties”.

Take `O=[N+]([O-])c1ccc2[nH]c3c(c2c1)C[C@@]1(O)[C@H]2Cc4ccc(O)c5c4[C@@]1(CCN2CC1CC1)[C@H]3O5` [Compound 6]: the figures for the Kb on kappa opioid receptor and on mu opioid receptor were no less than 200 nM and 92 nM, respectively.

In the case of `Oc1ccc2c3c1O[C@H]1c4[nH]c5c(F)cccc5c4C[C@@]4(O)[C@@H](C2)N(CC2CC2)CC[C@]314` [Compound 11], the values for the Kb at kappa opioid receptor and at mu opioid receptor were greater than 330 nM and 5.3 nM, respectively.

As for `Cc1cccc2c3c([nH]c12)[C@@H]1Oc2c(O)ccc4c2[C@@]12CCN(CC1CC1)[C@H](C4)[C@]2(O)C3` [Compound 13], the Kb at kappa opioid receptor is greater than 330 nM; at mu opioid receptor, 19.1 nM.

With `CC(N)Cc1ccccc1` (stereo not drawn) [Amphetamine, phenylisopropylamine, reference compound], the “pressing for brain stimulation, amphetamine alone” value in experiment [2] (rat, in vivo) was “produced an increment in pressing; also recorded: produced increased pressing compared to pressing under the influence of placebo”.

With `Cc1ccc2[nH]c3c(c2c1)C[C@@]1(O)[C@H]2Cc4ccc(O)c5c4[C@@]1(CCN2CC1CC1)[C@H]3O5` [Compound 5], the Kb was greater than 250 nM on kappa opioid receptor and greater than 160 nM at mu opioid receptor.

With `COc1cccc2c3c([nH]c12)[C@@H]1Oc2c(O)ccc4c2[C@@]12CCN(CC1CC1)[C@H](C4)[C@]2(O)C3` [Compound 14], the Kb at mu opioid receptor is 35 nM.

For `Oc1ccc2c3c1O[C@H]1c4[nH]c5cccc(F)c5c4C[C@@]4(O)[C@@H](C2)N(CC2CC2)CC[C@]314` [Compound 10], the Kb is greater than 170 nM at kappa opioid receptor and greater than 125 nM at mu opioid receptor.

For the compound `Oc1ccc2c3c1O[C@H]1c4[nH]c5ccc(F)cc5c4C[C@@]4(O)[C@@H](C2)N(CC2CC2)CC[C@]314` [Compound 3], the figures for the Kb at kappa opioid receptor and on mu opioid receptor were 46.2 nM and 61.7 nM, respectively.

As to `COc1ccc2[nH]c3c(c2c1)C[C@@]1(O)[C@H]2Cc4ccc(O)c5c4[C@@]1(CCN2CC1CC1)[C@H]3O5` [Compound 4], the Kb on kappa opioid receptor is 12.6 nM; at mu opioid receptor it was 63 nM.

As to `CNC(C)Cc1ccc2c(c1)OCO2` (stereo not drawn) [MDMA, N-monomethyl-3,4-methylenedioxyphenylisopropylamine, reference compound], the conditioned place preference entry in experiment [1] (drug alone, literature) was “produces a conditioned place preference among rats”. For the same compound, the “mean presses at High intensity, MDMA plus Placebo” value in experiment [2] (High intensity of intracranial stimulation, six rats) stood at 922 presses per ten minutes. In experiment [2] (Low intensity of intracranial stimulation, six rats), the “mean presses at Low intensity, MDMA plus Placebo” value is recorded as 288 presses per ten minutes. In addition, the “mean presses at Medium intensity, MDMA plus Placebo” value in experiment [2] (Medium intensity of intracranial stimulation, six rats) was 563 presses per ten minutes. The “pressing for brain stimulation, MDMA alone” value in experiment [2] (in words) is “increased pressing”. For the same compound, the “average increase in pressing, MDMA” value in experiment [2] (low intensity, factor) is on record as “four times”.

In the case of `Cn1c2c(c3ccccc31)C[C@@]1(O)[C@H]3Cc4ccc(O)c5c4[C@@]1(CCN3CC1CC1)[C@H]2O5` [Compound 2], the Kb at kappa opioid receptor was 22.2 nM; on mu opioid receptor, 12.5 nM.

As to `O=C1C(=Cc2ccccc2)C[C@@]2(O)[C@H]3Cc4ccc(O)c5c4[C@@]2(CCN3CC2CC2)[C@H]1O5` [BNTX, 7-benzylidenenaltrexone], in experiment [2] (rat, in vivo), the “pressing for brain stimulation, BNTX plus cocaine” value was “reduced cocaine's (5 mg/kg) facilitation of pressing for rewarding brain stimulation in a fashion similar to the reduction observed for NTI; also recorded: extraordinarily effective in blocking cocaine's salient effects”.

Turning to `Oc1ccc2[nH]c3c(c2c1)C[C@@]1(O)[C@H]2Cc4ccc(O)c5c4[C@@]1(CCN2CC1CC1)[C@H]3O5` [Compound 9], the Kb on kappa opioid receptor is 68.5 nM; on mu opioid receptor it was 27.2 nM.
